Results from patent US11046680B1, “Heteroaryl-substituted triazoles as APJ receptor agonists” (priority 2016, dated 2021).

These compounds were tested against human APJ receptor (Homo sapiens (Human), UniProt P35414) (assay: biochemical). Conditions: [35S]GTPγS binding, CHO membranes expressing human APJ receptor; read-out: Activity hAPJ SPA EC50 IP.
Assay type: biochemical
In short: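 GTPγS binding on membranes from CHO cells stably expressing FLAG-tagged human APJ, with optimized GDP, MgCl2 and NaCl; incubated 90 min at RT before imaging read-out.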

Sequence of human APJ receptor (P35414 whole entry): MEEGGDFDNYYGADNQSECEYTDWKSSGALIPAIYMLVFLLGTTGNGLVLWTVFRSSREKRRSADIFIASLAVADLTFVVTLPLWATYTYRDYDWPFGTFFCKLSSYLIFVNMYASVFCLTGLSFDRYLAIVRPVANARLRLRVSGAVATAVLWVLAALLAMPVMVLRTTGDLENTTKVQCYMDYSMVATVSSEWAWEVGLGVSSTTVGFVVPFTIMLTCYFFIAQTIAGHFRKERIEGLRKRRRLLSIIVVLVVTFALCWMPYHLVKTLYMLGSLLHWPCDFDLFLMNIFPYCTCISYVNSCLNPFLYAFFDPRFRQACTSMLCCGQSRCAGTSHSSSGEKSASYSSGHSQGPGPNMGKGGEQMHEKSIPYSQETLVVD

| Compound | EC50 |
| --- | --- |
| COc1cnc([C@@H](OC)[C@H](C)S(=O)(=O)Nc2nnc(-c3ccn(C)n3)n2-c2c(OC)cccc2OC)cn1 (single isomer, unassigned) [Example 308.0, (1R,2S)-N-(4-(2,6-dimethoxyphenyl)-5-(1-methyl-1H-pyrazol-3-yl)-4H-1,2,4-triazol-3-yl)-1-methoxy-1-(5-methoxy-2-pyrazinyl)-2-propanesulfonamide or (1S,2R)-N-(4-(2,6-dimethoxyphenyl)-5-(1-methyl-1H-pyrazol-3-yl)-4H-1,2,4-triazol-3-yl)-1-methoxy-1-(5-methoxy-2-pyrazinyl)-2-propanesulfonamide] | 0.58 nM |
| COc1cccc(OC)c1-n1c(NS(=O)(=O)[C@@H](C)[C@H](OC)c2ncc(C)cn2)nnc1-c1cc(C)on1 [Example 425.0, (1R,25)-N-(4-(2,6-dimethoxyphenyl)-5-(5-methylisoxazol-3-yl)-4H-1,2,4-triazol-3-yl)-1-sulfonamide] | 8.1 nM |
| CO[C@H](c1ncc(Cl)cn1)[C@H](C)S(=O)(=O)Nc1nnc(-c2noc3ccccc23)n1C(C)C [Example 511.0, (1R,2S)-N-(5-(benzo[d]isoxazol-3-yl)-4-isopropyl-4H-1,2,4-triazol-3-yl)-1-(5-chloropyrimidin-2-yl)-1-methoxypropane-2-sulfonamide] | 200 nM |
| COc1cccc(OC)c1-n1c(NS(=O)(=O)C[C@H](O)c2ccc(Cl)cc2)nnc1-c1ccn(C)n1 (single isomer, unassigned) [Example 374.0, (R)-2-(4-Chlorophenyl)-N-(4-(2,6-dimethoxyphenyl)-5-(1-methyl-1H-pyrazol-3-yl)-4H-1,2,4-triazol-3-yl)-2-hydroxyethanesulfonamide or (R)-2-(4-chlorophenyl)-N-(4-(2,6-dimethoxyphenyl)-5-(1-methyl-1H-pyrazol-3-yl)-4H-1,2,4-triazol-3-yl)-2-hydroxyethanesulfonamide] | 7 nM |
| COc1cnc([C@@H](C)[C@H](C)S(=O)(=O)Nc2nnc(-c3ccn(C)n3)n2-c2c(OC)ncnc2OC)cn1 [Example 292.0, (2S,3R)-N-(4-(4,6-dimethoxy-5-pyrimidinyl)-5-(1-methyl-1H-pyrazol-3-yl)-4H-1,2,4-triazol-3-yl)-3-(5-methoxy-2-pyrazinyl)-2-butanesulfonamide] | 1.2 nM |
| COc1cccc(OC)c1-n1c(NS(=O)(=O)[C@@H](C)[C@H](OC)c2ncc(Cl)cn2)nnc1-c1cnn2c1CCC2 [Example 488.0, (1R,2S)-1-(5-chloropyrimidin-2-yl)-N-(5-(5,6-dihydro-4H-pyrrolo[1,2-b]pyrazol-3-yl)-4-(2,6-dimethoxyphenyl)-4H-1,2,4-triazol-3-yl)-1-methoxypropane-2-sulfonamide] | 0.2 nM |
| COc1cccc(OC)c1-n1c(NS(=O)(=O)[C@@H](C)[C@H](C)c2ncc(C)cn2)nnc1-c1cc(C)[nH]n1 [Example 346.0, (2S,3R)-N-(4-(2,6-dimethoxyphenyl)-5-(5-methyl-1H-pyrazol-3-yl)-4H-1,2,4-triazol-3-yl)-3-(5-methyl-2-pyrimidinyl)-2-butanesulfonamide] | 1.5 nM |
| COc1ccc2[nH]c(-c3nnc(NS(=O)(=O)[C@@H](C)[C@H](OC)c4ncc(C)cn4)n3-c3c(OC)cccc3OC)cc2c1 [Example 336.0, (1R,2S)-N-(4-(2,6-dimethoxyphenyl)-5-(5-methoxy-1H-indo1-2-yl)-4H-1,2,4-triazol-3-yl)-1-methoxy-1-(5-methyl-2-pyrimidinyl)-2-propanesulfonamide] | 310 nM |
| COc1cccc(OC)c1-n1c(NS(=O)(=O)[C@@H](C)[C@H](C)c2ncc(F)cn2)nnc1-c1cc2n(n1)CCC2 [Example 208.0, (2S,3R)-N-(5-(5,6-dihydro-4H-pyrrolo[1,2-b]pyrazol-2-yl)-4-(2,6-dimethoxyphenyl)-4H-1,2,4-triazol-3-yl)-3-(5-fluoro-2-pyrimidinyl)-2-butanesulfonamide] | 2.5 nM |
| CO[C@H]1CCC[C@@H](OC)C1n1c(NS(=O)(=O)[C@@H](C)[C@H](C)c2ncc(Cl)cn2)nnc1-c1cnn2ccccc12 (stereo partly drawn) [Example 442.0, (2S,3R)-3-(5-chloropyrimidin-2-yl)-N-(4-((1r,2R,6S)-2,6-dimethoxycyclohexyl)-5-(pyrazolo[1,5-a]pyridin-3-yl)-4H-1,2,4-triazol-3-yl)butane-2-sulfonamide] | 190 nM |
| (R)-N-(4-(2,6-dimethoxyphenyl)-5-(1,5-dimethyl-1H-pyrazol-3-yl)-4H-1,2,4-triazol-3-yl)-1-(5-fluoropyrimidin-2-yl)propane-2-sulfonamide and (S)-N-(4-(2,6-dimethoxyphenyl)-5-(1,5-dimethyl-1H-pyrazol-3-yl)-4H-1,2,4-triazol-3-yl)-1-(5-fluoropyrimidin-2-yl)propane-2-sulfonamide [Example 53.0] | 9.7 nM |
| COCC1(n2c(NS(=O)(=O)[C@@H](C)[C@H](OC)c3ncc(Cl)cn3)nnc2-c2nn(C)c3c2CCCC3)CCC1 [Example 518.0] | 92 nM |
| COc1cccc(OC)c1-n1c(NS(=O)(=O)CCc2ccc(F)cc2C#N)nnc1-c1nc(C2CC2)cs1 [Example 155.0, 2-(2-cyano-4-fluorophenyl)-N-(5-(4-cyclopropylthiazol-2-yl)-4-(2,6-dimethoxyphenyl)-4H-1,2,4-triazol-3-yl)ethanesulfonamide] | 10 nM |
| COc1cccc(OC)c1-n1c(NS(=O)(=O)[C@@H]2CCCN(c3ncc(F)cn3)C2)nnc1-c1ccn(C)n1 (single isomer, unassigned) [Example 261.0, (3R)-N-(4-(2,6-dimethoxyphenyl)-5-(1-methyl-1H-pyrazol-3-yl)-4H-1,2,4-triazol-3-yl)-1-(5-fluoro-2-pyrimidinyl)-3-piperidinesulfonamide or (3S)-N-(4-(2,6-dimethoxyphenyl)-5-(1-methyl-1H-pyrazol-3-yl)-4H-1,2,4-triazol-3-yl)-1-(5-fluoro-2-pyrimidinyl)-3-piperidinesulfonamide] | 190 nM |
| COc1cccc(OC)c1-n1c(NS(=O)(=O)[C@@H](C)[C@@H](C)c2ncc(F)cn2)nnc1-c1nc(C)cs1 (single isomer, unassigned) [Example 119.0] | 4.6 nM |
| COc1ncnc(OC)c1-n1c(NS(=O)(=O)[C@@H](C)[C@H](OC)c2ncc(C)cn2)nnc1-c1nc(C2CC2)cs1 [Example 4.0, (1R,2S)-N-(5-(4-cyclopropylthiazol-2-yl)-4-(4,6-dimethoxypyrimidin-5-yl)-4H-1,2,4-triazol-3-yl)-1-methoxy-1-(5-methylpyrimidin-2-yl)propane-2-sulfonamide] | 0.92 nM |
| COc1ccccc1-n1c(NS(=O)(=O)Cc2ccc(Cl)cc2)nnc1-c1cccs1 [Example 385.0, 1-(4-Chlorophenyl)-N-(4-(2-methoxyphenyl)-5-(thiophen-2-yl)-4H-1,2,4-triazol-3-yl)methanesulfonamide] | > 12500 nM |
| COc1cccc(OC)c1-n1c(NS(=O)(=O)[C@@H](C)[C@H](C)c2ncc(C)cn2)nnc1-c1cnn2c1CCC2 [Example 487.0, (2S,3R)-N-(5-(5,6-dihydro-4H-pyrrolo[1,2-b]pyrazol-3-yl)-4-(2,6-dimethoxyphenyl)-4H-1,2,4-triazol-3-yl)-3-(5-methylpyrimidin-2-yl)butane-2-sulfonamide] | 0.62 nM |
| COc1cccc(OC)c1-n1c(NS(=O)(=O)[C@H](C)Cc2ccc(C#N)cn2)nnc1-c1nc(C)cs1 (single isomer, unassigned) [Example 11.0, (2R)-1-(5-cyano-2-pyridinyl)-N-(4-(2,6-dimethoxyphenyl)-5-(4-methyl-1,3-thiazol-2-yl)-4H-1,2,4-triazol-3-yl)-2-propanesulfonamide or (2S)-1-(5-cyano-2-pyridinyl)-N-(4-(2,6-dimethoxyphenyl)-5-(4-methyl-1,3-thiazol-2-yl)-4H-1,2,4-triazol-3-yl)-2-propanesulfonamide] | 0.8 nM |
| COc1ccc(N2CCC2=O)cc1-n1c(NS(=O)(=O)CCc2ccc(Cl)cc2)nnc1-c1cccs1 [Example 126.0, 2-(4-Chlorophenyl)-N-(4-(2-methoxy-5-(2-oxo-1-azetidinyl)phenyl)-5-(2-thiophenyl)-4H-1,2,4-triazol-3-yl)ethanesulfonamide] | 11 nM |
| COc1cccc(OC)c1-n1c(NS(=O)(=O)[C@@H](C)[C@H](C)c2ncc(C)cn2)nnc1-c1noc2ccccc12 [Example 77.0, (2S,3R)-N-(5-(benzo[d]isoxazol-3-yl)-4-(2,6-dimethoxyphenyl)-4H-1,2,4-triazol-3-yl)-3-(5-methylpyrimidin-2-yl)butane-2-sulfonamide] | 4.1 nM |
| COc1cncc(-c2nnc(NS(=O)(=O)[C@@H](C)[C@H](OC)c3cnc(C)cn3)n2-c2c(OC)cccc2OC)n1 [Example 327.0, (1R,2S)-N-(4-(2,6-dimethoxyphenyl)-5-(6-methoxy-2-pyrazinyl)-4H-1,2,4-triazol-3-yl)-1-methoxy-1-(5-methyl-2-pyrazinyl)-2-propanesulfonamide] | 4 nM |
| CCO[C@@H](c1ncc(Cl)cn1)[C@H](C)S(=O)(=O)Nc1nnc(-c2ccn(C)n2)n1-c1c(OC)cccc1OC (single isomer, unassigned) [Example 352.0, (1S,2S)-1-(5-chloropyrimidin-2-yl)-N-(4-(2,6-dimethoxyphenyl)-5-(1-methyl-1H-pyrazol-3-yl)-4H-1,2,4-triazol-3-yl)-1-ethoxypropane-2-sulfonamide or (1R,2R)-1-(5-chloropyrimidin-2-yl)-N-(4-(2,6-dimethoxyphenyl)-5-(1-methyl-1H-pyrazol-3-yl)-4H-1,2,4-triazol-3-yl)-1-ethoxypropane-2-sulfonamide] | 35 nM |
| COc1ccccc1-n1c(NS(=O)(=O)CCc2ccc(Cl)cc2)nnc1-c1cccs1 [Example 236.0, 2-(4-chlorophenyl)-N-(4-(2-methoxyphenyl)-5-(thiophen-2-yl)-4H-1,2,4-triazol-3-yl)ethanesulfonamide] | 120 nM |
| COC[C@@H](C)n1c(NS(=O)(=O)[C@@H](C)[C@H](OC)c2ncc(Cl)cn2)nnc1-c1ccn(C)n1 [Example 531.0, (1R,2S)-1-(5-chloro-2-pyrimidinyl)-1-methoxy-N-(4-((2R)-1-methoxy-2-propanyl)-5-(1-methyl-1H-pyrazol-3-yl)-4H-1,2,4-triazol-3-yl)-2-propanesulfonamide] | 50 nM |
